Here are results for 15 compounds from patent US6410792B1, “Amide derivatives and methods for using the same as selective neuropeptide Y receptor antagonists” (Bayer Corporation, priority 1997, dated 2002).

One experiment addresses T1, Human NPY5 receptor (Homo sapiens, UniProt Q15761).
T1 sequence (Q15761 1-445): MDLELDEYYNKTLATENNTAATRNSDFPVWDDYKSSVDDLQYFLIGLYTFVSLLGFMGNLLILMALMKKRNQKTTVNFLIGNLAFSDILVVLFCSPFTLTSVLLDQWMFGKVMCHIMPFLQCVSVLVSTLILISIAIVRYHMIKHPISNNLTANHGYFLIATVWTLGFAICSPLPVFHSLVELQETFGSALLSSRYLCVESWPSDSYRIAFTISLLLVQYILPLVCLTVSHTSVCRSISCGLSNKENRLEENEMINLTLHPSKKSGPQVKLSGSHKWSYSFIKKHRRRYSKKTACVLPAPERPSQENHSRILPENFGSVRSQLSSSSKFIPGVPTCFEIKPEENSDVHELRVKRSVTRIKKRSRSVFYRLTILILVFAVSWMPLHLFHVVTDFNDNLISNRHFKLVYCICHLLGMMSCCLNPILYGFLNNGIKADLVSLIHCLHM
Put plainly: Human NPY5 receptor binding assay ([125I]PYY, membrane protein). The conditions noted are these: [125I]PYY binding, read-out: hNPY5 IC50. The method, boiled down: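 Membrane protein was incubated with 75-100 pM porcine [125I]PYY and test compound for 2 hours at room temperature with constant mixing in pH 7.4 Tris buffer containing NaCl, KCl, CaCl2, MgSO4, 0.1% BSA and bacitracin. Nonspecific binding was defined with 1 μM PYY. Bound radioactivity was counted after filtration.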

The target of the next experiment is T2, Rat NPY5 receptor (Rattus norvegicus, UniProt Q63634).
T2 sequence (Q63634 1-445): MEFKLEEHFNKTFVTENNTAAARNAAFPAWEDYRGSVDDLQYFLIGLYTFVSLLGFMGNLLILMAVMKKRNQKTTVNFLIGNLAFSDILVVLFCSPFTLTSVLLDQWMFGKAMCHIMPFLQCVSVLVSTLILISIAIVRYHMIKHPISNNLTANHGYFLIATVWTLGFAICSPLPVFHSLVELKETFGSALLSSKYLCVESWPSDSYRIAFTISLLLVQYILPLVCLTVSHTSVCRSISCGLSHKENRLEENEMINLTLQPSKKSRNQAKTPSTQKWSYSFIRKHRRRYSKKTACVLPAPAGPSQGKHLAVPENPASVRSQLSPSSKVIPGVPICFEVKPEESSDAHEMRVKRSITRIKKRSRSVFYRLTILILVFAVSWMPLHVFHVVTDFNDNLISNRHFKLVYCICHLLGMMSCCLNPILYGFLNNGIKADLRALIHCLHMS
Put plainly: Rat NPY5 receptor binding assay ([125I]PYY, membrane protein). Particulars: [125I]PYY binding, read-out: rNPY5 IC50. As for the experimental part: C. Human and Rat NPY5 Receptor Binding Assays
Binding assays are performed on GF/C Millipore 96well plates pretreated with 0.02% polyethylenimine. The binding buffer is 25 mM Tris, 120 mM NaCl, 5 mM KCl, 1.2 mM KH2PO4, 2.5 mM CaCl2, 1.2 mM MgSO4, 0.1% BSA and 0.5 mg/ml bacitracin, pH 7.4. Samples consist of membrane protein, 75-100 pM [125I]PYY (porcine, NEN-DuPont) and drug dilution. Nonspecific binding is defined by 1 μM PYY. After a 2 hour incubation at room temperature with constant mixing, the samples are aspirated on a vacuum manifold, and rinsed with ice-cold binding buffer. The amount of radioactivity in each well is quantitated with either gamma counting or liquid scintillation.

As a reminder, the IC50 is the point on the concentration scale where inhibition reaches its midpoint. In the case of `COC(CNCC(=O)Nc1ccc(C(=O)c2ccccc2)cc1)OC` [Compound 5, N-(4-Benzoyl-phenyl)-2-(2,2-dimethoxy-ethylamino)-acetamide], the 50% inhibitory concentration (IC50) at Human NPY5 receptor and on Rat NPY5 receptor was 300 nM each time.
On to `O=C(CNCc1ccco1)Nc1ccc(C2CCCCC2)cc1` [Compound 160, N-(4-Cyclohexyl-phenyl)-2-[(furan-2-ylmethyl)-amino]-acetamide], for which the values for the IC50 at Human NPY5 receptor and on Rat NPY5 receptor were 660 nM and 450 nM, respectively.
Consider `O=C(CNc1c(I)cc(C(=O)O)cc1I)Nc1ccc(C2CCCCC2)cc1` [Compound 165, 4-{[(4-Cyclohexyl-phenylcarbamoyl)-methyl]-amino)-3,5-diiodo-benzoic acid anion], for which the concentration for half-maximal inhibition (IC50) on Human NPY5 receptor is 1100 nM; at Rat NPY5 receptor, 700 nM.
Regarding `O=C(CNCc1ccco1)Nc1ccc(C(=O)c2ccccc2)cc1` [Compound 166, N-(4-Benzoyl-phenyl)-2-[(furan-2-ylmethyl)-amino]-acetamide], the results for the IC50 on Human NPY5 receptor and on Rat NPY5 receptor were 610 nM and 730 nM, respectively.
Regarding `O=C(CNc1c(I)cc(C(=O)O)cc1I)Nc1ccc(C(=O)c2ccccc2)cc1` [Compound 171, 4-{[(4-Benzoyl-phenylcarbamoyl)-methyl]-amino)-3,5-diiodo-benzoic acid], the values for the concentration for half-maximal inhibition (IC50) at Human NPY5 receptor and on Rat NPY5 receptor were 530 nM and 1200 nM, respectively.
Take `O=C(CNC(CO)CO)Nc1ccc(C2CCCCC2)cc1` [Compound 173, N-(4-Cyclohexyl-phenyl)-2-(2-hydroxy-1-hydroxymethyl-ethylamino)-acetamide]: the IC50 is 2000 nM on Human NPY5 receptor and 920 nM at Rat NPY5 receptor.
On the same counts, the results for `O=C(CNCC1CC1)Nc1ccc(C2CCCCC2)cc1` [Compound 174, N-(4-Cyclohexyl-phenyl)-2-(cyclopropylmethyl-amino)-acetamide] are 610 nM and 840 nM.
On to `O=C(CNCCO)Nc1ccc(C2CCCCC2)cc1` [Compound 176, N-(4-Cyclohexyl-phenyl)-2-(2-hydroxy-ethylamino)-acetamide], for which the half-inhibitory concentration (IC50) on Human NPY5 receptor and on Rat NPY5 receptor was more than 10000 nM throughout.
In the case of `O=C1C=C(NCC(=O)Nc2ccc(C3CCCCC3)cc2)CCC1` [Compound 179, N-(4-Cyclohexyl-phenyl)-2-(3-oxo-cyclohex-1-enylamino)-acetamide], the 50% inhibitory concentration (IC50) on Human NPY5 receptor and on Rat NPY5 receptor was more than 10000 nM each time.
Turning to `O=C(O)CC(NCC(=O)Nc1ccc(C2CCCCC2)cc1)C(F)(F)F` (stereo not drawn) [Compound 180, 3-{[(4-Cyclohexyl-phenylcarbamoyl)-methyl]-amino}-4,4,4-trifluoro-butyric acid], the IC50 at Human NPY5 receptor was 170 nM; on Rat NPY5 receptor, 120 nM.
Regarding `O=C(CNCC1CC1)Nc1ccc(C(=O)c2ccccc2)cc1` [Compound 184, N-(4-Benzoyl-phenyl)-2-(cyclopropylmethyl-amino)-acetamide], the IC50 at Human NPY5 receptor stood at 740 nM; on Rat NPY5 receptor, 690 nM.
Consider `O=C(O)CC(NCC(=O)Nc1ccc(C(=O)c2ccccc2)cc1)C(F)(F)F` (stereo not drawn) [Compound 190, 3-{[(4-Benzoyl-phenylcarbamoyl)-methyl]-amino}-4,4,4-trifluoro-butyric acid], for which the IC50 at Human NPY5 receptor and at Rat NPY5 receptor was 340 nM each time.
`CNC1CCN(CC(=O)Nc2ccc(C3CCCCC3)cc2)C1` (stereo not drawn) [Compound 193, N-(4-Cyclohexyl-phenyl)-2-(3-methylamino-pyrrolidin-1-yl)-acetamide]: the 50% inhibitory concentration (IC50) at Human NPY5 receptor worked out at 270 nM; on Rat NPY5 receptor, 250 nM.
For `CC(C)(C)OC(=O)NC1CCN(CC(=O)Nc2ccc(C3CCCCC3)cc2)C1` (stereo not drawn) [Compound 194, {1-[(4-Cyclohexyl-phenylcarbamoyl)-methyl]-pyrrolidin-3-yl}-carbamic acid tert-butyl ester], the concentration for half-maximal inhibition (IC50) was found to be 37 nM on Human NPY5 receptor and 35 nM at Rat NPY5 receptor.
On the same counts, the results for `CC(C)(C)OC(=O)NC1CCN(CC(=O)Nc2ccc(C3CCCCC3)cc2)C1` (stereo not drawn) [Compound 195, {1-[(4-Cyclohexyl-phenylcarbamoyl)-methyl]-pyrrolidin-3-yl}-carbamic acid tert-butyl ester] are 26 nM and 26 nM.
